# In patent publication US7214663B2, “Tripeptide prodrug compounds” (Medarex, Inc., priority 2001, dated 2007):
# Read-outs that look alike come from different tables or passages of the source.
# Legend:
# [1] = mouse, in vivo, intravenous
# [2] = system: healthy young female normal mice
# [3] = system: human colon carcinoma (LS174T); test: LS174T xenograft efficacy study
# Procedure: Healthy young female nude mice were subcutaneously implanted with chunks of LS174T. […] Tumor size and body weights were measured twice weekly for up to 60 days.
# in vivo = conditions: female, ICR, mouse, iv, 100 umol/kg
# Procedure: Plasma was obtained from three individual animals in each group at 5 minutes, 1, 2, 4, or 6 hr.
# [4] = system: LNCaP (prostate carcinoma) cells; conditions: 48 hours, 3H-thymidine incorporation
# Procedure: (§1) Adherent cells, LNCaP (prostate carcinoma), HT-29 (colon carcinoma) and PC-3 (prostate carcinoma), were cultured in DMEM media containing 10% heat inactivated fetal calf serum (FCS). On the day of the study the cells were detached from the plate with a trypsin solution. The collected cells were washed and resuspended at a concentration of 0.25×10^6 cells/ml in DMEM containing 10% FCS. 100 μl of cell suspension were added to 96 well plates and the plates were incubated for 3 hours to allow the cells to adhere. […] The plates were then incubated for 24 hours, pulsed with 10 μl of a 100 μCi/ml ^3H-thymidine and incubated for an additional 24 hours (total incubation time 48 hours). The plates were harvested using a 96 well Harvester (Packard Instruments) and counted on a Packard Top Count Counter. Four parameter logistic curves were fitted to the ^3H-thymidine incorporation as a function of drug molarity using Prism software to determine IC50 values.
# (§2) Prostate carcinoma cells, LNCaP and PC-3 cells or colon carcinoma cells HT-29, were incubated with increasing concentration of the indicated compounds for 48 hours and cellular proliferation was measured using the ^3H-thymidine assay.
# [5] = system: HT-29 (colon carcinoma) cells; conditions: HT29, 48 hours, 3H-thymidine incorporation
# Procedure: as §1, §2
# [6] = system: PC-3 (prostate carcinoma) cells; conditions: PC-3, 48 hours, 3H-thymidine incorporation
# Procedure: as §1, §2
# [7] = system: HeLa cell anion exchange fraction (F1), trouase; test: Relative cleavage by HeLa cell anion exchange fraction (F1) versus Suc-βAla-Leu-Ala-Leu standard; assay type: biochemical, human
# Procedure: Thirty billion commercially produced HeLa Cells (human cervical carcinoma, Computer Cell Culture Ceizter, Seneffe, Belgium) were homogenized with a sonicator and with a Dounce homogenizer in 108 mL of aqueous lysis solution. The lysis solution contained 0.02% w/v Triton X-100, 0.04% w/v sodium azide, and a cocktail of protease inhibitors (2 tablets/50 mL Complete™, EDTA-free tablets, Roche Molecular Biochemicals). The cell homogenate was centrifuged 30 minutes at 4° C. at 5000×g and the pellet was homogenized in a second 108 mL of lysis solution using a Dounce homogenizer and centrifuged as before. The supernatants were combined and centrifuged for 90 min at 145,000×g at 4° C.
# A portion of the ultracentrifugation supernatant was diluted 2-fold with a 20 mM triethanolamine-HCl pH 7.2 buffer containing 0.01% (w/v) Triton X-100 and 0.02% (w/v) sodium azide (equilibration buffer). Thirty mL of the resulting solution, corresponding to approximately 180 mg of protein, was loaded at 4° C. on a 2.6×9.4 cm Source™ 15Q (Amersham Pharmacia Biotech) low pressure anion exchange chromatography column (1 ml/minute). The column was then washed with 250 ml of the equilibration buffer at a flow rate of 1 mL/minute. Proteins were eluted in a NaCl linear concentration gradient (0–0.5 M in the equilibration buffer, total volume of the gradient was 1000 ml) at a flow rate of 3 ml/minute. Two-minute fractions were collected and used for enzyme activity determination using βAla-Leu-Ala-Leu-Dox as the substrate. Its transformation into Ala-Leu-Dox was quantified by reverse phase high performance liquid chromatography utilizing fluorescence detection of the anthracycline moiety. The fractions containing the highest activity levels were pooled (fractions #43–46; ˜0.13 M NaCl), supplemented with protease inhibitors (Complete™, EDTA-free tablets, Roche Molecular Biochemicals), and stored as aliquots at −80° C.
# Test compounds were incubated for 2 hr at 37° C. at a concentration of 12.5 μg/mL with HeLa cell anion exchange fraction (F1), as prepared in Example 1(c). Following incubation, three volumes of acetonitrile were added to stop the reaction and remove protein from the mixture. The sample was centrifuged at 18,000 g for 5 minutes and 100 μL of supernatant was mixed with 300 μL of water prior to analysis by HPLC. For HPLC analysis 50 μL of sample was injected on a 4.6×50 mm 2μ TSK Super-ODS chromatography column at 40° C. and eluted with a 3 minute linear gradient from 26% to 68% acetonitrile in aqueous 20 mM ammonium acetate pH 4.5 buffer at 2 mL/min. Detection was by fluorescence using an excitation wavelength of 235 nm and an emission wavelength of 560 nm.
# the amount of cleavage of each test compound was compared to the amount of a standard Suc-βAla-Leu-Ala-Leu-therapeutic agent conjugate cleaved by F1 under the same conditions. The therapeutic agent in the standard (Dox or Dnr) was the same as in the test compound. Table 3 provides the relative cleavage rates of several tripeptide prodrugs.
# Ramos cells (CD10pos) = assay type: cell-based, human; conditions: 24 hours, 3H-thymidine
# Procedure: (§3) In addition to LNCaP, a number of B-cell lines, such as Ramos and Namalwa cells express CD10 (CD10^pos cells).
# (§4) Suspension cells, BALL-1, Ramos and Namalwa cells were cultured in RPMI media containing 10% heat inactivated fetal calf serum (FCS). On the day of the study, the cells were collected, washed and resuspended at a concentration of 0.5×10^6 cells/ml in RPMI containing 10% FCS. 100 μl of cell suspension was added to 96 well plates. […] Finally 10 μl of a 100 μCi/ml ^3H-thymidine was added per well and the plates were incubated for 24 hours. The plates were harvested using a 96 well Harvester (Packard Instruments) and counted on a Packard Top Count counter. Four parameter logistic curves were fitted to the ^3H-thymidine incorporation as a function of drug molarity using Prism software to determine IC50 values.
# BALL-1 cells (CD10neg) = assay type: cell-based, human
# Procedure: as §3, §4
# [8] = first experiment, as first stated
# [9] = recalculation (about 47% active compound)
smiles,measurement,setting,value
COc1cccc2c1C(=O)c1c(O)c3c(c(O)c1C2=O)C[C@@](O)(C(=O)CO)C[C@@H]3O[C@H]1C[C@H](NC(=O)[C@H](CC(C)C)NC(=O)[C@H](C)NC(=O)[C@H](CC(C)C)NC(=O)CCC(=O)O)[C@H](O)[C@H](C)O1 [Suc-Leu-Ala-Leu-Dox],MTD at 28 day,[1],~59 mg/kg
same,equivalent dose of doxorubicin safely administered,[2]; [8],66 mg/kg
same,fold higher than possible with doxorubicin alone,[2]; [8],approximately 8 fold
same,mortalities over the 28-day study,[2]; intravenous 23-117 mg/kg,no mortalities
same,single-dose MTD,"[2]; intravenous, mice, 28-day study, first experiment, doses as first stated",greater than 117 mg/kg
same,equivalent dose of doxorubicin safely administered,[2]; [9],70 mg/kg
same,fold higher than possible with doxorubicin alone,[2]; [9],approximately 3.3 fold
same,"single dose MTD, fold higher than doxorubicin alone",[2]; repeated experiment,at least 1.2 fold
same,Mean Day of Survival,[3]; 52 mg/kg every 5 days for 5 doses,20 days
same,Mean Day of Survival,[3]; 63 mg/kg every 5 days for 5 doses,32 days
same,anti-tumor activity in LS174T xenograft,[3]; doxorubicin-insensitive model,decreased the rate of tumor growth considerably
same,AUC,in vivo,634 µM·h
same,IC50,[4],~1 µM
same,IC50,[5],36 µM
same,IC50,[6],50 µM
same,Relative Cleavage %,"[7]; 2 hr at 37° C., 12.5 μg/mL, HeLa F1, relative to Suc-βAla-Leu-Ala-Leu-(Dox or Dnr) standard",62%
same,Relative Rate of Cleavage,[7]; relative to Suc-βAla-Leu-Ala-Leu-Dox = 100 (Tables 11 and 12),62
same,IC50,Ramos cells (CD10pos),2.63 µM
same,fold difference between CD10pos and CD10neg cells,BALL-1 cells (CD10neg),30-35 fold
same,IC50,"BALL-1 cells (CD10neg); Ball-1 (CD10neg), 24 hours, 3H-thymidine",78.7 µM
same,Ratio Ball-1:Namalwa,BALL-1 cells (CD10neg); ratio of IC50,35
same,Ratio Ball-1:Ramos,BALL-1 cells (CD10neg); ratio of IC50,30
